Results from patent US7145043B2, “Non-Hazardous oxidative neutralization of aldehydes” (Ethicon, Inc., priority 2003, dated 2006).

System: Fathead Minnow
Details: 750 mg/L concentration, 48 hours
From the text: CALIFORNIA CODE REGS (“CCR”) Title 22-Fathead Minnow Hazardous Waste Screen Bioassay.

## OO [Hydrogen peroxide (5%), Hydrogen peroxide]
  survival: 0%
